Test results reported in patent US8575091B1, “Amylin analogues and pharmaceutical compositions thereof” (Novo Nordisk A/S, priority 2012, dated 2013).
Read-outs that look alike come from different tables or passages of the source. Numbered stars: 1 amine (or outer) side, 2 acyl side, 3 side chain; on linkers, the order of the positions; unused ones are H or OH. Bridge positions count the residues as written; N and C are the ends. Side chains are listed from the residue outwards. Peptide text beside a SMILES is read from it. * marks the point of attachment. C20 diacid = O=C(O)CCCCCCCCCCCCCCCCCCC(=O)*; γGlu = O=C(O)[C@H](CCC(=O)[*:2])N[*:1]

Experiments:
[1] = Assay (IV) determination of solubility; assay type: physicochemical; conditions: for Solubility pH 6.5 Concentration (μM): pH 6.5, 18 hours room temperature; for Solubility pH 7.0 Concentration (μM): pH 7.0, 18 hours room temperature; for Solubility pH 7.5 Concentration (μM): pH 7.5, 18 hours room temperature; for Solubility pH 8.0 Concentration (μM): pH 8.0, 18 hours room temperature
Protocol: Assay (IV)—Determination of Solubility
The polypeptide was dissolved in water at ˜500 nmol/ml and mixed 1:1 with a series of buffers (100 mM glycylglycine pH 3.0, 100 mM glycylglycine pH 4.0, 100 mM glycylglycine pH 5.0, 100 mM bistrispropane pH 6.0, 100 mM bistrispropane pH 6.5, 100 mM bistrispropane pH 7.0, 100 mM bistrispropane pH 7.5, 100 mM bistrispropane pH 8.0). After 18 hours at room temperature the samples were centrifuged and the polypeptide concentration determined by UPLC.

[2] = target: T1, human amylin receptor (amylin 3(a) receptor: human calcitonin receptor + RAMP-3) (Homo sapiens, UniProt O60896+P30988); assay: Assay (II)a functional assay, human amylin receptor (CRE luciferase, BHK cells); assay type: cell-based; conditions: for EC50: read-out: hAmylin-R funct. EC50
T1 construct: expressed in transfected cells
T1 sequence (P30988 25-474): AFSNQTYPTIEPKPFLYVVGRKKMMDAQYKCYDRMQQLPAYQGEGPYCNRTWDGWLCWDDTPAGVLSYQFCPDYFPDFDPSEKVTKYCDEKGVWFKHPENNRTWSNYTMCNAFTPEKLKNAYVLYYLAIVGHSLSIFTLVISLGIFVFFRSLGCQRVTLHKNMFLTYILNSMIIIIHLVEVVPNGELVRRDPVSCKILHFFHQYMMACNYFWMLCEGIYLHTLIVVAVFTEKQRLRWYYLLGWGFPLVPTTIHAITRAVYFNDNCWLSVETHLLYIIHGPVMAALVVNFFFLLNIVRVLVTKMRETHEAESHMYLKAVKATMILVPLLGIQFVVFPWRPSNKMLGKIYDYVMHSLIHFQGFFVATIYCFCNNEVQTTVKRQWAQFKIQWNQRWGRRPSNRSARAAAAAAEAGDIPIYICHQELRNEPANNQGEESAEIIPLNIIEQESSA
T1 sequence (O60896 24-148 partner): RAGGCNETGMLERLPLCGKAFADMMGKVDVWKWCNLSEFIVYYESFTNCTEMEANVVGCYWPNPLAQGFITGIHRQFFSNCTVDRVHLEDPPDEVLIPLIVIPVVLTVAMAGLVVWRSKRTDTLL

[3] = target: T2, human amylin receptor (Homo sapiens, UniProt O60896+P30988); assay: Assay (V) binding to the human amylin receptor (SPA, 125I-rat amylin); conditions: for IC50: human amylin receptor membranes, SPA, read-out: hAmylin-R bind IC50
T2 construct: expressed in transfected cells
T2 sequence (P30988 25-474): T1 sequence (P30988 25-474)
T2 sequence (O60896 24-148 partner): T1 sequence (O60896 24-148 partner)
Summary of the method: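 SPA competition binding on membranes from Amylin 3(a)/CRE-luc cells, 35 ng/μL membranes with 0.05 mg/well beads. Buffer 50 mM Hepes pH 7.4, 1 mM CaCl2, 5 mM MgCl2, 0.1% OA, 0.02% Tween20. IC50 from one-site competition fit as affinity measure.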

[4] = target: T3, human calcitonin receptor (Homo sapiens, UniProt P30988); assay: Assay (II)a functional assay, human calcitonin receptor (CRE luciferase, BHK cells);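 note: luminescence from a CRE-driven luciferase reporter, read by single photon counting after cells were exposed to test samples for 3 h at 37 °C under 5% CO2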; assay type: cell-based; conditions: read-out: hCTR funct. EC50
T3 construct: expressed in transfected cells
T3 sequence (P30988 25-474): T1 sequence (P30988 25-474)

[5] = target: T3, human calcitonin receptor; assay: Assay (VII) binding to the human calcitonin receptor (SPA, 125I-Calcitonin); conditions: read-out: hCTR bind IC50;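 note: cell membranes coupled to SPA beads, competitive displacement read by scintillation counting, IC50 derived from a one-site competition fit as a measure of receptor affinity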
[6] = target: T4, rat amylin receptor (Rattus norvegicus, UniProt P32214+Q9JJ73); assay: Assay (VI) binding to the rat amylin receptor; conditions: rCTR bind IC50 divided by rAmylin-R bind IC50
T4 construct: expressed in transfected cells; host or cells: BHK tk'ts 13 (transient, FuGENE 6), membranes
T4 sequence (P32214 25-479 isoform P32214-2 limits assumed): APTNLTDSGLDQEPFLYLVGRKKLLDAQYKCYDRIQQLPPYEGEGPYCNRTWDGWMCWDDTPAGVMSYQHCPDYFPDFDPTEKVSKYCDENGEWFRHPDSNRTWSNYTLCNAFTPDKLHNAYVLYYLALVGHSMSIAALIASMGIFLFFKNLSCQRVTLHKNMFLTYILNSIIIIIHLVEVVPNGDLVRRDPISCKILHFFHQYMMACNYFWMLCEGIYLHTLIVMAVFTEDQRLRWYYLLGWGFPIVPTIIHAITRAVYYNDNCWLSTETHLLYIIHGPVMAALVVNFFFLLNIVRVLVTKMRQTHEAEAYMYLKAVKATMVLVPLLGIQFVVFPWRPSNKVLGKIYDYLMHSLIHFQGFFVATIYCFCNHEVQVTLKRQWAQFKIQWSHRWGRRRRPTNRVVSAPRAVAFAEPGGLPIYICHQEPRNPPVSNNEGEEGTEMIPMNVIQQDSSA
T4 sequence (Q9JJ73 23-147 partner): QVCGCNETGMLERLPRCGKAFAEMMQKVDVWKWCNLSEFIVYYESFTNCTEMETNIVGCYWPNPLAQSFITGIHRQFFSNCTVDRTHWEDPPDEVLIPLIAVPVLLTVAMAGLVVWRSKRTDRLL
Summary of the method: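 Binding as in the human amylin receptor binding assay, but with membranes from BHK tk'ts 13 cells transiently co-transfected with rat calcitonin receptor and rat RAMP 3 […]. Membranes were prepared from cells harvested about 48 hours after transfection.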

[7] = Table 6, human functional selectivity (hCTR EC50 / hAmylin-R EC50)
[8] = Table 6a, human functional selectivity (hCTR EC50 / hAmylin-R EC50), at least 5
[9] = Table 6j, hCTR funct. EC50 / hAmylin-R funct. EC50
[10] = Table 6k, hCTR funct. EC50 / hAmylin-R funct. EC50

Solubility pH 6.5 Concentration (μM) [1]	Solubility pH 7.0 Concentration (μM) [1]	Solubility pH 7.5 Concentration (μM) [1] [μM]	Solubility pH 8.0 Concentration (μM) [1] [μM]	Ratio hCT/hAmylin funct. [2, 7]	Ratio hCT/hAmylin funct. [2, 8]	Ratio hCT/hAmylin funct. [2, 9]	Ratio hCT/hAmylin funct. [2, 10]	IC50 [3] [nM]	EC50 [4] [nM]	IC50 [5] [nM]	EC50 ([2]; Table 6j, human amylin receptor functional) [nM]	Ratio rCT/rAmylin binding ([6]; Table 7b)	Ratio rCT/rAmylin binding ([6]; Table 7c)	Ratio rCT/rAmylin binding [6]	Ratio hCT/hAmylin binding ([3]; human binding ratio, included for comparison)	EC50 ([2]; functional assay, human amylin receptor) [nM]	Structure (SMILES)
≧200 μM	≧200 μM	131	52														CC[C@H](C)[C@H](NC(=O)[C@H](C)NC(=O)CNC(=O)[C@H](Cc1ccccc1)NC(=O)[C@H](CC(N)=O)NC(=O)[C@@H]1CCCN1C(=O)[C@H](CO)NC(=O)[C@H](CO)NC(=O)[C@H](Cc1c[nH]cn1)NC(=O)[C@H](CCCNC(=N)N)NC(=O)[C@H](CC(C)C)NC(=O)[C@H](Cc1ccccc1)NC(=O)[C@H](Cc1c[nH]cn1)NC(=O)[C@H](C)NC(=O)[C@H](CC(C)C)NC(=O)[C@H](CCCNC(=N)N)NC(=O)[C@H](CCC(N)=O)NC(=O)[C@@H](NC(=O)[C@H](C)NC(=O)[C@@H]1CSSC[C@H](NC(=O)[C@@H](N)CCCCNC(=O)CC[C@H](NC(=O)CCCCCCCCCCCCCCCCCCC(=O)O)C(=O)O)C(=O)N[C@@H](CC(N)=O)C(=O)N[C@@H]([C@@H](C)O)C(=O)N[C@@H](C)C(=O)N[C@@H]([C@@H](C)O)C(=O)N1)[C@@H](C)O)C(=O)N1CCC[C@H]1C(=O)N[C@@H](CO)C(=O)N[C@@H](CO)C(=O)N[C@H](C(=O)N[C@@H](CC(N)=O)C(=O)N[C@H](C(=O)NCC(=O)N[C@@H](CO)C(=O)N[C@@H](Cc1c[nH]cn1)C(=O)N[C@H](C(=O)N[C@@H](Cc1ccc(O)cc1)C(N)=O)[C@@H](C)O)C(C)C)[C@@H](C)O [Example 66] (H-K([γGlu-C20 diacid])CNTATCATQRLAHFLRHSSPNFGAIPSSTNVGSHTY-NH2; disulfide 2-7; N-terminus assumed)
174 μM	182 μM	112	32	26.0	26.0	26.0	26.0										CC[C@H](C)[C@H](NC(=O)[C@H](C)NC(=O)CNC(=O)[C@H](Cc1ccccc1)NC(=O)[C@H](CC(N)=O)NC(=O)[C@@H]1CCCN1C(=O)[C@H](CO)NC(=O)[C@H](CO)NC(=O)[C@H](Cc1c[nH]cn1)NC(=O)[C@H](CCCNC(=N)N)NC(=O)[C@H](CC(C)C)NC(=O)[C@H](Cc1ccccc1)NC(=O)[C@H](CC(N)=O)NC(=O)[C@H](C)NC(=O)[C@H](CC(C)C)NC(=O)[C@H](CCCNC(=N)N)NC(=O)[C@H](CCC(N)=O)NC(=O)[C@@H](NC(=O)[C@H](C)NC(=O)[C@@H]1CSSC[C@H](NC(=O)[C@@H](N)CCCCNC(=O)CC[C@H](NC(=O)CC[C@H](NC(=O)CCCCCCCCCCCCCCCCCCC(=O)O)C(=O)O)C(=O)O)C(=O)N[C@@H](CC(N)=O)C(=O)N[C@@H]([C@@H](C)O)C(=O)N[C@@H](C)C(=O)N[C@@H]([C@@H](C)O)C(=O)N1)[C@@H](C)O)C(=O)N1CCC[C@H]1C(=O)N[C@@H](CO)C(=O)N[C@@H](CO)C(=O)N[C@H](C(=O)N1CCC[C@H]1C(=O)N[C@H](C(=O)NCC(=O)N1CCC[C@H]1C(=O)N[C@@H](CCCNC(=N)N)C(=O)N[C@H](C(=O)N[C@@H](Cc1ccc(O)cc1)C(N)=O)[C@@H](C)O)C(C)C)[C@@H](C)O [Example 119] (H-K([γGlu-γGlu-C20 diacid])CNTATCATQRLANFLRHSSPNFGAIPSSTPVGPRTY-NH2; disulfide 2-7 (inferred); N-terminus and C-terminus assumed)
				8.4	8.4	8.4	8.4	1.14	2.62	73.4	0.313	52.0	52.0	52.0			CC[C@H](C)[C@H](NC(=O)[C@H](C)NC(=O)CNC(=O)[C@H](Cc1ccccc1)NC(=O)[C@H](CC(N)=O)NC(=O)[C@@H]1CCCN1C(=O)[C@H](CO)NC(=O)[C@H](CO)NC(=O)[C@H](Cc1c[nH]cn1)NC(=O)[C@H](CCCNC(=N)N)NC(=O)[C@H](CC(C)C)NC(=O)[C@H](Cc1ccccc1)NC(=O)[C@H](CC(N)=O)NC(=O)[C@H](C)NC(=O)[C@H](CC(C)C)NC(=O)[C@H](CCCNC(=N)N)NC(=O)[C@H](CCC(N)=O)NC(=O)[C@@H](NC(=O)[C@H](C)NC(=O)[C@@H]1CSSC[C@H](NC(=O)[C@H](CCCCN)NC(=O)CC[C@H](NC(=O)CCCCCCCCCCCCCCCCCCC(=O)O)C(=O)O)C(=O)N[C@@H](CC(N)=O)C(=O)N[C@@H]([C@@H](C)O)C(=O)N[C@@H](C)C(=O)N[C@@H]([C@@H](C)O)C(=O)N1)[C@@H](C)O)C(=O)N1CCC[C@H]1C(=O)N[C@@H](CO)C(=O)N[C@@H](CO)C(=O)N[C@H](C(=O)N[C@@H](CC(N)=O)C(=O)N[C@H](C(=O)NCC(=O)N[C@@H](CO)C(=O)N[C@@H](CCCCN)C(=O)N[C@H](C(=O)N[C@@H](Cc1ccc(O)cc1)C(N)=O)[C@@H](C)O)C(C)C)[C@@H](C)O [Example 34]
				0.9				0.214	0.09	0.117				1.1	0.5	0.105	CC[C@H](C)[C@H](NC(=O)[C@H](C)NC(=O)CNC(=O)[C@H](Cc1ccccc1)NC(=O)[C@H](CC(N)=O)NC(=O)[C@@H]1CCCN1C(=O)[C@H](CO)NC(=O)[C@H](CO)NC(=O)[C@H](Cc1c[nH]cn1)NC(=O)[C@H](CCCNC(=N)N)NC(=O)[C@H](CC(C)C)NC(=O)[C@H](Cc1ccccc1)NC(=O)[C@H](CCC(=O)O)NC(=O)[C@H](C)NC(=O)[C@H](CC(C)C)NC(=O)[C@H](CCCNC(=N)N)NC(=O)[C@H](CCC(N)=O)NC(=O)[C@@H](NC(=O)[C@H](C)NC(=O)[C@@H]1CSSC[C@H](NC(=O)[C@@H](N)CCCCNC(=O)CC[C@H](NC(=O)CCCCCCCCCCCCCCCCCCC(=O)O)C(=O)O)C(=O)N[C@@H](CC(N)=O)C(=O)N[C@@H]([C@@H](C)O)C(=O)N[C@@H](C)C(=O)N[C@@H]([C@@H](C)O)C(=O)N1)[C@@H](C)O)C(=O)N1CCC[C@H]1C(=O)N[C@@H](CO)C(=O)N[C@@H](CO)C(=O)N[C@H](C(=O)N[C@@H](CC(N)=O)C(=O)N[C@H](C(=O)NCC(=O)N1CCC[C@H]1C(=O)N[C@@H](CC(N)=O)C(=O)N[C@H](C(=O)N1CCC[C@H]1C(N)=O)[C@@H](C)O)C(C)C)[C@@H](C)O [Example 114] (H-K([γGlu-C20 diacid])CNTATCATQRLAEFLRHSSPNFGAIPSSTNVGPNTP-NH2; disulfide 2-7)
